Test results as given in US20200069691A1, “HETEROCYCLIC COMPOUNDS AS HIV PROTEASE INHIBITORS” (Merck Sharp & Dohme Corp., priority 2016, published 2020).

Target: T1, wild-type HIV-1 protease (Human immunodeficiency virus type 1 group M subtype B, UniProt P04585)
T1 construct: Escherichia coli expressed wild-type HIV-1 protease protein
Test: Assay for Inhibition of Microbial Expressed HIV Protease (peptide substrate cleavage, LC-MS/MS readout)
Format: biochemical
Conditions: E. coli expressed wild-type HIV-1 protease, mean of at least two independent experiments, read-out: HIV Pr Enzyme HIV1 PR IC50
Procedure, shortened: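 E. coli-expressed wild-type HIV-1 protease ([…]) was preincubated with inhibitor 30 min at room temperature in pH 5.5 acetate buffer (100 mM NaCl, 0.1% BSA). Then 400 μM octapeptide substrate was added and reacted 1 h at 30 °C; inhibition came from LC-MS/MS product peak areas, mean of ≥2 experiments.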

SMILES | IC50 [nM]
N=C1NC(c2ccccc2)(c2ccccc2)C(=O)N1Cc1ccc(Cl)c(C(=O)N2Cc3cccnc3C2)c1 [Compound 368, 3-[4-chloro-3-(5,7-dihydro-6H-pyrrolo[3,4-b]pyridin-6-ylcarbonyl)benzyl]-2-imino-5,5-diphenylimidazolidin-4-one] | 5.42
N=C1NC(c2ccccc2)(c2ccccc2)C(=O)N1Cc1cccc(C(=O)N2Cc3ccc(F)cc3C2)c1 [Compound 203, 3-{3-[(5-fluoro-1,3-dihydro-2H-isoindol-2-yl)carbonyl]benzyl}-2-imino-5,5-diphenylimidazolidin-4-one] | 6.71
N=C1NC(c2ccc(F)cc2)(c2cccc(-c3cccnc3)c2)C(=O)N1Cc1cccc(C(=O)N2Cc3ccccc3C2)c1 (stereo not drawn) [Compound 284, 3-[3-(1,3-dihydro-2H-isoindol-2-ylcarbonyl)benzyl]-5-(4-fluorophenyl)-2-imino-5-(3-pyridin-3-ylphenyl)imidazolidin-4-one] | 32.7
CN(C)c1ncnc2c1CN(C(=O)c1cccc(CN3C(=N)NC(c4ccc(F)cc4)(c4ccc(F)cc4)C3=O)c1)C2 [Compound 220, 3-(3-{[4-(dimethylamino)-5,7-dihydro-6H-pyrrolo[3,4-d]pyrimidin-6-yl]carbonyl}benzyl)-5,5-bis(4-fluorophenyl)-2-iminoimidazolidin-4-one] | 11
CC(C)CC[C@]1(c2ccccc2)NC(=N)N([C@H](C)c2cccc(C(=O)N3Cc4nccnc4C3)c2)C1=O [Compound 217, 3-{(1R)-1-[3-(5,7-dihydro-6H-pyrrolo[3,4-b]pyrazin-6-ylcarbonyl)phenyl]ethyl}-2-imino-5-(3-methylbutyl)-5-phenylimidazolidin-4-one] | 10.3
N=C1N[C@](CCCC(F)(F)F)(c2ccc(F)cc2)C(=O)N1Cc1ccc(C(F)(F)F)c(C(=O)N2CCN(CC(F)(F)F)CC2)c1 [Compound 127, (5R)-5-(4-fluorophenyl)-2-imino-5-(4,4,4-trifluorobutyl)-3-[3-{[4-(2,2,2-trifluoroethyl)piperazin-1-yl]carbonyl}-4-(trifluoromethyl)-benzyl]imidazolidin-4-one] | 65.1
COCC(=O)N1CCN(C(=O)c2cc(CN3C(=N)N[C@](CCCC(F)(F)F)(c4ccc(F)cc4)C3=O)ccc2C(F)(F)F)CC1 [Compound 112, (5R)-5-(4-fluorophenyl)-2-imino-3-[3-{[4-(methoxyacetyl)piperazin-1-yl]carbonyl}-4-(trifluoromethyl)benzyl]-5-(4,4,4-trifluorobutyl)imidazolidin-4-one] | 30.7
CCC(c1cccc(C(=O)N2Cc3cncnc3C2)c1)N1C(=N)NC(c2ccccc2)(c2ccccc2)C1=O (stereo not drawn) [Compound 263, 3-{1-[3-(5,7-dihydro-6H-pyrrolo[3,4-d]pyrimidin-6-ylcarbonyl)phenyl]propyl}-2-imino-5,5-diphenylimidazolidin-4-one] | 24.7
COC(=O)N1CCN(C(=O)c2cccc([C@@H](C)N3C(=N)N[C@](CCC(C)C)(c4ccccc4)C3=O)c2)CC1 [Compound 221, methyl 4-[(3-{(1R)-1-[2-imino-4-(3-methylbutyl)-5-oxo-4-phenyl-imidazolidin-1-yl]ethyl}phenyl)-carbonyl]piperazine-1-carboxylate] | 11.1
N#Cc1ncc2c(n1)CN(C(=O)c1cccc(CN3C(=N)NC(c4ccccc4)(c4ccccc4)C3=O)c1)C2 [Compound 199, 6-({3-[(2-imino-5-oxo-4,4-diphenylimidazolidin-1-yl)methyl]phenyl}carbonyl)-6,7-dihydro-5H-pyrrolo[3,4-d]pyrimidine-2-carbonitrile] | 5.59
CC(C)CC[C@]1(c2ccc(F)cc2)NC(=N)N(C(COC(C)C)c2ccc(C(F)(F)F)c(C(=O)N3Cc4nccnc4C3)c2)C1=O (stereo partly drawn) [Compound 8, (5R)-3-{1-[3-(5,7-dihydro-6H-pyrrolo[3,4-b]pyrazin-6-ylcarbonyl)-4-(trifluoromethyl)phenyl]-2-(1-methylethoxy)ethyl}-5-(4-fluorophenyl)-2-imino-5-(3-methylbutyl)imidazolidin-4-one] | 0.52
N=C1NC(c2ccc(F)cc2)(c2ccccn2)C(=O)N1Cc1cccc(C(=O)N2Cc3ccccc3C2)c1 (stereo not drawn) [Compound 256, 3-[3-(1,3-dihydro-2H-isoindol-2-ylcarbonyl)benzyl]-5-(4-fluorophenyl)-2-imino-5-pyridin-2-ylimidazolidin-4-one] | 21.1
N=C1NC(CCC2CC2)(c2cc(F)cc(F)c2)C(=O)N1Cc1ccc(C(F)(F)F)c(C(=O)N2CCn3c(nnc3C(F)(F)F)C2)c1 (stereo not drawn) [Compound 91, 5-(2-cyclopropylethyl)-5-(3,5-difluorophenyl)-2-imino-3-[4-(trifluoromethyl)-3-{[3-(trifluoro-methyl)-5,6-dihydro[1,2,4]triazolo-[4,3-a]pyrazin-7(8H)-yl]carbonyl}-benzyl]imidazolidin-4-one] | 16.3
CC(C)C[C@]1(c2ccccc2)NC(=N)N(Cc2ccc(C(F)(F)F)c(C(=O)N3Cc4nccnc4C3)c2)C1=O [Compound 149, (5R)-3-[3-(5,7-dihydro-6H-pyrrolo[3,4-b]pyrazin-6-ylcarbonyl)-4-(trifluoromethyl)-benzyl]-2-imino-5-(2-methylpropyl)-5-phenyl-imidazolidin-4-one] | 5.24
CC(C)CC1(c2ccccc2)NC(=N)N(Cc2cccc(C(=O)N3CCN(c4ccccc4)CC3)c2)C1=O (stereo not drawn) [Compound 342, 2-imino-5-(2-methylpropyl)-5-phenyl-3-{3-[(4-phenylpiperazin-1-yl)carbonyl]benzyl} imidazolidin-4-one] | 78.8
COC(=O)N1CCN(C(=O)c2cc(F)cc(CN3C(=N)NC(c4ccccc4)(c4ccccc4)C3=O)c2)CC1 [Compound 298, methyl 4-({3-fluoro-5-[(2-imino-5-oxo-4,4-diphenylimidazolidin-1-yl)methyl]phenyl}carbonyl) piperazine-1-carboxylate] | 43.5
CC(C)CCC1(c2ccccc2)NC(=N)N(Cc2ccc(C(F)(F)F)c(C(=O)N3Cc4cnc(C#N)nc4C3)c2)C1=O (stereo not drawn) [Compound 148, 6-{[5-{[2-imino-4-(3-methylbutyl)-5-oxo-4-phenylimidazolidin-1-yl]methyl}-2-(trifluoromethyl)phenyl]carbonyl}-6,7-dihydro-5H-pyrrolo[3,4-d]pyrimidine-2-carbonitrile] | 5.21
CC(C)CCC1(c2ccccc2)NC(=N)N(Cc2cc(C(=O)N3Cc4nccnc4C3)ccn2)C1=O (stereo not drawn) [Compound 400, 3-{[4-(5,7-dihydro-6H-pyrrolo[3,4-b]pyrazin-6-ylcarbonyl)pyridin-2-yl]methyl}-2-imino-5-(3-methylbutyl)-5-phenylimidazolidin-4-one] | 25.6
COC(=O)N1CCN(C(=O)c2cccc(CN3C(=N)NC(c4ccc(F)cc4)(c4cccc(C(N)=O)c4)C3=O)c2)CC1 (stereo not drawn) [Compound 347, methyl 4-[(3-{[4-(3-carbamoylphenyl)-4-(4-fluorophenyl)-2-imino-5-oxoimidazolidin-1-yl]methyl}phenyl)-carbonyl]piperazine-1-carboxylate] | 83.3
N=C1N[C@](CCCC(F)(F)F)(c2ccc(F)cc2)C(=O)N1Cc1ccc(C(F)(F)F)c(C(=O)N2Cc3cnc(-c4cccc(-c5ccn[nH]5)c4)nc3C2)c1 [Compound 40, (5R)-5-(4-fluorophenyl)-2-imino-3-[3-({2-[3-(1H-pyrazol-5-yl)phenyl]-5,7-dihydro-6H-pyrrolo[3,4-d]pyrimidin-6-yl}carbonyl)-4-(trifluoromethyl)benzyl]-5-(4,4,4-trifluorobutyl)imidazolidin-4-one] | 4.13
N=C1NC(c2ccccc2)(c2ccccc2)C(=O)N1Cc1cccc(C(=O)N2CCn3c(nnc3C(F)(F)F)C2)c1 [Compound 329, 2-imino-5,5-diphenyl-3-(3-{[3-(trifluoromethyl)-5,6-dihydro[1,2,4]triazolo[4,3-a]pyrazin-7(8H)-yl]carbonyl}benzyl) imidazolidin-4-one] | 66.9
CN1CCN(C(=O)c2cc(F)cc(CN3C(=N)NC(c4ccccc4)(c4ccccc4)C3=O)c2)CC1=O [Compound 353, 4-({3-fluoro-5-[(2-imino-5-oxo-4,4-diphenylimidazolidin-1-yl)methyl]phenyl}carbonyl)-1-methylpiperazin-2-one] | 88.8
N=C1NC(c2ccccc2)(c2ccccc2)C(=O)N1Cc1cc(F)cc(C(=O)N2Cc3ccccc3C2)c1 [Compound 296, 3-[3-(1,3-dihydro-2H-isoindol-2-ylcarbonyl)-5-fluorobenzyl]-2-imino-5,5-diphenylimidazolidin-4-one] | 40.3
CC(C)CC1(c2ccccc2)NC(=N)N(Cc2cccc(C(=O)N3Cc4cccnc4C3)c2)C1=O (stereo not drawn) [Compound 259, 3-[3-(5,7-dihydro-6H-pyrrolo[3,4-b]pyridin-6-ylcarbonyl)benzyl]-2-imino-5-(2-methylpropyl)-5-phenylimidazolidin-4-one] | 22.6
N=C1NC(c2ccccc2)(c2ccccc2)C(=O)N1Cc1ccc(Cl)c(C(=O)N2Cc3nccnc3C2)c1 [Compound 362, 3-[4-chloro-3-(5,7-dihydro-6H-pyrrolo[3,4-b]pyrazin-6-ylcarbonyl)benzyl]-2-imino-5,5-diphenylimidazolidin-4-one] | 1.34
COC(=O)Nc1ncc2c(n1)CN(C(=O)c1cc(CN3C(=N)NC(CCC(C)C)(c4ccccc4)C3=O)ccc1C(F)(F)F)C2 (stereo not drawn) [Compound 137, methyl (6-{[5-{[2-imino-4-(3-methylbutyl)-5-oxo-4-phenylimidazolidin-1-yl]methyl}-2-(trifluoromethyl)phenyl]carbonyl}-6,7-dihydro-5H-pyrrolo[3,4-d]pyrimidin-2-yl)carbamate] | 1.88
N=C1NC(c2ccc(F)cc2)(c2ccc(F)cc2)C(=O)N1Cc1ccc(F)c(C(=O)N2Cc3nccnc3C2)c1 [Compound 382, 3-[3-(5,7-dihydro-6H-pyrrolo[3,4-b]pyrazin-6-ylcarbonyl)-4-fluorobenzyl]-5,5-bis(4-fluorophenyl)-2-iminoimidazolidin-4-one] | 13.1
